Consider 2 molecules from patent US20200054646A1, “USE OF PHENOTHIAZINE DERIVATIVE IN THE TREATMENT OF INFECTIOUS PURPURA OR PURPURA FULMINANS” (priority 2016, published 2020).

The subject of test [1] is N. meningitidis 2C4.3 bacterial aggregates. Briefly: microbe, parasite or virus in culture. Type of test: cell-based, Neisseria meningitidis. The method, then: N. meningitidis 2C4.3 was grown in liquid culture at 10^7 CFU/ml for 2 h to form bacterial aggregates and were treated with increasing concentrations of Trifluoperazine (10 to 40 μM), Gentamicin (150 μg/ml) or cefotaxim (20 μg/ml) for 20 minutes and bacterial aggregates were immediately visualized using a phase-contrast microscope. […] (B) Quantification of the bacterial aggregation was performed using Image J software.
N. meningitidis 2C4.3 wild type strain and the isogenic derivative mutant PilT ([…]PilT) were grown in liquid culture at 10^7 CFU/ml for 2 h to form bacterial aggregates and then treated with 50 μM Trifluoperazine. Time lapse phase-contrast video microscopy was performed to visualize the effect on bacterial aggregates over time. Images were taken at the indicated time points of the video.
N. meningitidis 2C4.3 was grown in liquid culture at 10^7 CFU/ml for 2 h to form bacterial aggregates and were treated with 30 μM Trifluoperazine for 30 minutes to induce bacterial dispersion or PBS as a control. The medium was replaced to remove the Trifluoperazine and the reformation of bacterial aggregates were visualized overtime using a phase-contrast microscope.
FIG. 7. […] Bacteria were grown in suspension for 2 h then Phenothiazine derivatives were added at the indicated concentrations.
N. meninigitidis 2C4.3 strain was grown in suspension in wells of a 24 well plate, containing 1 ml of DMEM medium supplemented with 10% heat-inactivated fetal calf serum. After 2 h of growth, Trifluoperazine (or control vehicle) was added at various concentrations ranging from 10 to 40 μM for 20 min and the bacterial aggregates were visualized over time using a phase-contrast microscope.
N. meninigitidis 2C4.3 strain was grown in suspension in wells of a 24 well plate, containing 1 ml of DMEM medium supplemented with 10% heat-inactivated fetal calf serum. After 2 h of growth, various concentrations (0.5 to 80 μM) of phenothiazine-derivative compounds or control vehicle (PBS or DMSO) were added to the wells for 30 min and the bacterial aggregates were visualized using a phase-contrast microscope.
Were tested phenothiazine-derivative compounds of: • the Piperazine group: Trifluoperazine (Sigma #T8516), Fluphenazine (Sigma #F4765), Prochlorperazine (Sigma #P9178) Perphenazine (Sigma #P6402); • the Piperidine group: Thioridazine (Sigma #T9025) and Mesoridazin (Sigma #M4068); • the Aliphatic group: Chlorpromazine (Sigma #C8138), Promazine (Sigma #P6656), Triflupromazine (Sigma #1686003) and levomepromazine (Sigma #L0500000).

The subject of test [2] is Nm2C4.3 microcolonies on HBMEC. Briefly: Dispersion of meningococcal microcolonies at the surface of infected human endothelial cells. Type of test: cell-based, Neisseria meningitidis. The method, then: Human […] microvascular endothelial cells (HBMEC) were infected with Nm2C4.3 for 1 h 30, treated with Trifluoperazine (10-40 μM) for 30 minutes, before fixation and immunofluorescence analysis using anti-Nm2C4.3 antibody and Alexa Fluor 633 Phalloidin. (A) Representative fluorescence microscopy showing bacterial colony (white dots) formed at the surface of the endothelial cells. (B) Quantification of the bacterial colonization was performed using Image J software.
HBMEC, a human endothelial cell line isolated from bone marrow capillaries (Schweitzer et al., 1997) were grown in Dulbecco's Modified Eagle Medium (DMEM) 4.5 g/L-Glutamax (ThermoFischer) 10% FBS. Cells were grown on Thermanox coverslips coated with gelatin 2% (BD Difco #214340) for 2 days to reach confluency. Cells were then infected with a suspension of Nm2C4.3 (˜10^7 CFU/ml) in DMEM/FBS during 30 minutes to allow bacterial adhesion. Cells were then washed three times with medium to remove non-adherent bacteria and infection was pursued for 1 h 30: adherent bacteria grew at the endothelial cell surface and formed micro-colonies. Trifluoperazine was then added to obtain final concentrations of 10, 20, 30 and 40 μM. After incubation for 30 minutes, cells were washed and fixed in 4% Paraformaldehyde for 10 min, washed three times with PBS, and permeabilized with 0.1% Triton X-100 in PBS for 10 min. Cells were blocked for 30 min with 3% BSA in PBS and were incubated for 2 h with the primary antibodies (Rabbit polyclonal anti-Nm2C4.3 strain, kindly provided by Dr X. Nassif, INEM, Paris). After three washes with PBS, cells were incubated for 1 h with […] anti-rabbit IgG (Jackson ImmunoResearch Laboratories), together with Alexa Fluor 633 Phalloidin (Thermofischer) and DAPI (0.5 mg ml-1, Sigma Aldrich) to stain Actin and nuclei, respectively. Labelled preparations were mounted in Glycergel media (DAKO) and image acquisitions were performed with a DM16000 microscope (Leica, X40). Quantification was done with ImageJ software (NIH). Results are presented as a vascular colonisation index corresponding to the area occupied by the fluorescently labelled bacteria per fields in relation to the area occupied by the fluorescently labelled human endothelial cells (Actin staining). Statistical analysis were performed with Student t test.

Turning to `CN[C@@H]1[C@@H](O)C(O[C@@H]2[C@@H](O)[C@H](O[C@H]3O[C@H]([C@@H](C)NC)CC[C@H]3N)[C@@H](N)C[C@H]2N)OC[C@]1(C)O` (stereo partly drawn) [Gentamicin, (3R,4R,5R)-2-{[(1S,2S,3R,4S,6R)-4,6-diamino-3-{[(2R,3R,6S)-3-amino-6-[(1R)-1-(methylamino)ethyl]oxan-2-yl]oxy}-2-hydroxycyclohexyl]oxy}-5-methyl-4-(methylamino)oxane-3,5-diol], the “dispersion of bacterial aggregates formed in suspension” value in test [1] (Gentamicin 150 μg/ml, 20 minutes) was “did not significantly induce the dispersion”. The “dispersion of microcolonies at the endothelial cell surface” value in test [2] (Gentamicin 150 μg/ml) is “poorly induced the dispersion”.

Consider `CN1CCN(CCCN2c3ccccc3Sc3ccc(C(F)(F)F)cc32)CC1` [Trifluoperazine], for which the “reversibility of the effect on aggregation upon removal” value in test [1] (30 μM for 30 minutes, then medium replaced) is reported as “reversible”. For the same molecule, in test [1] (10 to 40 μM, 20 min), the “dispersion of bacterial aggregates pre-formed for two hours” value is “induced their dispersion”. For the same molecule, in test [1] (20 min treatment, suspension), the “concentration range of dose-dependent dispersion of aggregates” value is 10 to 40 µM. The EC80 in test [1] (Neisseria meningitidis, 0.5 h, read-out: Concentration promoting efficient meningococcal dispersal (~80%)) amounted to 30 µM. Further, the “time after addition at which dispersion occurs” value in test [1] (time lapse video microscopy, 50 μM) lay in the range of 10 to 15 min. The “concentration range of dose-dependent microcolony dispersion” value in test [2] (30 min, HBMEC and primary HDMEC) fell in the range of 10 to 40 µM. For the same molecule, the “dispersion of compact microcolonies already established at the endothelial cell surface” value in test [2] (treatment for 30 min, HBMEC (also HDMEC)) is recorded as “induced their dispersion”.
